# Laboratory results: article PMC2265061, “Compound Cytotoxicity Profiling Using Quantitative High-Throughput Screening” (Environmental Health Perspectives, 2007)
# Entries after “also recorded” stand apart in the source; their conditions may differ. Like-named read-outs stand apart in the source and are kept apart here.
# Columns and labels:
# HEK293 = type: cell-based
# Description: (§1) We measured cell viability using a luciferase-coupled ATP quantitation assay (CellTiter-Glo; Promega, Madison, WI). In this assay, luminescent signal is proportional to amount of ATP and thus to the number of metabolically competent cells; cell injury and death result in a dramatic decrease in intracellular ATP levels ([Crouch et al. 1993]). Cells were dispensed at 1,000–2,000 cells/5 μL/well in tissue-culture treated 1,536-well white/solid bottom assay plates (Greiner Bio-One North America, Monroe, NC) using a Flying Reagent Dispenser (Aurora Discovery, Carlsbad, CA). All but Jurkat cells (which are grown in suspension) were incubated at 37°C for 5–6 hr to allow for cell attachment, followed by addition of compounds via pin tool (Kalypsys, San Diego, CA). […] At the end of the incubation period, 5 μL of CellTiter-Glo reagent was added, plates were incubated at room temperature for 30 min, and the luminescence intensity of each well was determined using a ViewLux plate reader (PerkinElmer, Shelton, CT).
# (§2) Compound formatting and qHTS were performed as described previously ([Inglese et al. 2006]).
# (§3) Analysis of compound concentration–response data was performed as previously described ([Inglese et al. 2006]). […] Compound activity correlations between different assays or experiments were assessed by calculating the Pearson correlation coefficient. […]
# [1] = system: 13 human and rodent cell types; conditions: for Species selectivity of cytotoxicity (human versus rodent cell types): nine human versus four rodent cell types
# Excerpt: Human renal mesangial cells obtained from adult kidney tissue were kindly provided by J. Kopp (National Institute of Diabetes and Digestive and Kidney Diseases, NIH, Bethesda, MD). Rat renal proximal tubule cells were freshly isolated from rat kidney by In Vitro ADMET Laboratories, LLC (Rockville, MD). All cells chosen for testing represent target tissues of interest in toxicology from both human and rodent sources; most were transformed lines, but some were nontransformed or primary cells. All are well-characterized cells, produce uniform populations, are relatively easy to culture, and are amenable to a 1,536-well format.
# as §1, with “In this assay, luminescent signal is proportional to amount of ATP and thus to the number of metabolically competent cells; cell injury and death result in a dramatic decrease in intracellular ATP levels ([Crouch et al. 1993]).” left out
# (§4) Class 1 or 2 compounds were further divided into subclasses based on efficacy and quality of fit (R^2). Compounds with R^2 > 0.9 and high (> 80%) efficacy were designated as subclass a, and compounds with R^2 > 0.9 and low efficacies (30–80%) as subclass b. […] Compound activity correlations between different assays or experiments were assessed by calculating the Pearson correlation coefficient. Hierarchical clustering of compound activity patterns across different assays was performed within Spotfire DecisionSite 8.2 (Spotfire Inc., Cambridge, MA) using the correlation of log IC50 values as the similarity metric.
# HepG2 cells = experiment: Real-time cell electronic sensing (RT-CES) cytotoxicity assay; type: cell-based, Human; conditions: HepG2, RT-CES impedance, 0.14 to 100 μM
# Description: HepG2 cells in the presence of compounds at concentrations from 0.14 to 100 μM were monitored by measurements of electrical impedance (ACEA Biosciences Inc., San Diego, CA) every 10 min for the first hour, then every hour for 70–90 hr.
# NIH 3T3 = type: cell-based, Mouse
# Description: as §1, §2, §3
# HepG2 = conditions: HepG2, mean ± SD
# Description: as §1, §2
# as §4, with “Analysis of compound concentration–response data was performed as previously described ([Inglese et al. 2006]). […] Concentration–response titration points for each compound were fitted to the Hill equation ([Hill 1910]), yielding concentrations of half-maximal inhibition (IC50) and maximal response (efficacy) values. […] Class” for “Class”
# Jurkat = conditions: mean ± SD
# Description: as §1, §2
# as §4, with “Analysis of compound concentration–response data was performed as previously described ([Inglese et al. 2006]). […] Concentration–response titration points for each compound were fitted to the Hill equation ([Hill 1910]), yielding concentrations of half-maximal inhibition (IC50) and maximal response (efficacy) values. […] Class” for “Class”
# SK-N-SH = conditions: mean ± SD
# Description: as §1, §2
# as §4, with “Analysis of compound concentration–response data was performed as previously described ([Inglese et al. 2006]). […] Concentration–response titration points for each compound were fitted to the Hill equation ([Hill 1910]), yielding concentrations of half-maximal inhibition (IC50) and maximal response (efficacy) values. […] Class” for “Class”
# Mesangial = conditions: mean ± SD
# Description: as §1, §2
# as §4, with “Analysis of compound concentration–response data was performed as previously described ([Inglese et al. 2006]). […] Concentration–response titration points for each compound were fitted to the Hill equation ([Hill 1910]), yielding concentrations of half-maximal inhibition (IC50) and maximal response (efficacy) values. […] Class” for “Class”
# SH-SY5Y = system: SH-SY5Y
# Description: as §1, §2
# as §4, with “Analysis of compound concentration–response data was performed as previously described ([Inglese et al. 2006]). […] Concentration–response titration points for each compound were fitted to the Hill equation ([Hill 1910]), yielding concentrations of half-maximal inhibition (IC50) and maximal response (efficacy) values. […] Class” for “Class”
# HUV-EC-C = conditions: mean ± SD
# Description: as §1, §2
# as §4, with “Analysis of compound concentration–response data was performed as previously described ([Inglese et al. 2006]). […] Concentration–response titration points for each compound were fitted to the Hill equation ([Hill 1910]), yielding concentrations of half-maximal inhibition (IC50) and maximal response (efficacy) values. […] Class” for “Class”
# MRC-5 = conditions: MRC-5, mean ± SD
# Description: as §1, §2
# as §4, with “Analysis of compound concentration–response data was performed as previously described ([Inglese et al. 2006]). […] Concentration–response titration points for each compound were fitted to the Hill equation ([Hill 1910]), yielding concentrations of half-maximal inhibition (IC50) and maximal response (efficacy) values. […] Class” for “Class”
# H-4-II-E = conditions: mean ± SD
# Description: as §1, §2
# as §4, with “Analysis of compound concentration–response data was performed as previously described ([Inglese et al. 2006]). […] Concentration–response titration points for each compound were fitted to the Hill equation ([Hill 1910]), yielding concentrations of half-maximal inhibition (IC50) and maximal response (efficacy) values. […] Class” for “Class”
# [2] = system: Rat kidney proximal tubule; conditions: mean ± SD
# Description: as §1, §2
# as §4, with “Analysis of compound concentration–response data was performed as previously described ([Inglese et al. 2006]). […] Concentration–response titration points for each compound were fitted to the Hill equation ([Hill 1910]), yielding concentrations of half-maximal inhibition (IC50) and maximal response (efficacy) values. […] Class” for “Class”
# N2a = conditions: mean ± SD
# Description: as §1, §2
# as §4, with “Analysis of compound concentration–response data was performed as previously described ([Inglese et al. 2006]). […] Concentration–response titration points for each compound were fitted to the Hill equation ([Hill 1910]), yielding concentrations of half-maximal inhibition (IC50) and maximal response (efficacy) values. […] Class” for “Class”
# BJ = conditions: mean ± SD
# Description: as §1, §2
# as §4, with “Analysis of compound concentration–response data was performed as previously described ([Inglese et al. 2006]). […] Concentration–response titration points for each compound were fitted to the Hill equation ([Hill 1910]), yielding concentrations of half-maximal inhibition (IC50) and maximal response (efficacy) values. […] Class” for “Class”
smiles,measurement,setting,value
Cc1ccc2c(c1[N+](=O)[O-])C(=O)c1ccccc1C2=O [2-methyl-1-nitroanthraquinone],Cell type-selective toxicity,HEK293; in HEK293 cells,selective toxicity
C[C@@H]1C[C@@H]([C@H](O)CC2CC(=O)NC(=O)C2)C(=O)[C@@H](C)C1 [cycloheximide],Cytotoxicity pattern across the 13 cell types,"[1]; human, rat, mouse",cytotoxic in all but two cell types (MRC-5 and SH-SY5Y)
same,Kinetic response (cell index over time),HepG2 cells,inhibited cell proliferation but did not decrease cell number below what was present at the time of addition
C[C@@H]1CC[C@@]2(OC1)O[C@H]1[C@@H](O)[C@H]3[C@@H]4CC[C@H]5C[C@@H](O[C@@H]6O[C@H](CO)[C@H](O[C@@H]7O[C@H](CO)[C@@H](O)[C@H](O[C@@H]8OC[C@@H](O)[C@H](O)[C@H]8O)[C@H]7O[C@@H]7O[C@H](CO)[C@H](O)[C@H](O[C@@H]8O[C@H](CO)[C@@H](O)[C@H](O)[C@H]8O)[C@H]7O)[C@H](O)[C@H]6O)[C@H](O)C[C@]5(C)[C@H]4CC[C@]3(C)[C@H]1[C@@H]2C [digitonin],Cytotoxicity pattern across the 13 cell types,"[1]; 0.59 nM to 92 μM, 40 hr",cytotoxicity in all cell types at similar concentrations; also recorded: cytotoxic in all 13 cell types; also recorded: uniformly toxic across all cell types
same,Exposure time to full cytotoxicity,HepG2 cells,10 min
C[C@H]1O[C@@H](O[C@H]2[C@@H](O)C[C@H](O[C@H]3[C@@H](O)C[C@H](O[C@H]4CC[C@@]5(C)[C@H](CC[C@@H]6[C@@H]5C[C@@H](O)[C@]5(C)[C@@H](C7=CC(=O)OC7)CC[C@]65O)C4)O[C@@H]3C)O[C@@H]2C)C[C@H](O)[C@@H]1O [digoxin],Species selectivity of cytotoxicity (human versus rodent cell types),[1],more toxic to human cells
CN(C)c1ccc(N=Nc2ccccc2)cc1 [dimethylaminoazobenzene],Species selectivity of cytotoxicity (human versus rodent cell types),[1],more toxic to rodent cells
O=C(Nc1ccccc1)Nc1ccccc1 [diphenylurea],Species selectivity of cytotoxicity (human versus rodent cell types),[1],toxicity in cells from one species but not the other
COc1cccc2c1C(=O)c1c(O)c3c(c(O)c1C2=O)C[C@@](O)(C(=O)CO)C[C@@H]3O[C@H]1C[C@H](N)[C@H](O)[C@H](C)O1 [doxorubicin],Cytotoxicity pattern across the 13 cell types,"[1]; 0.59 nM to 92 μM, 40 hr",toxic in all cell types; also recorded: cytotoxic in all 13 cell types
same,Exposure time to complete cytotoxicity,HepG2 cells,35 h
CN(C)c1ccc(C(=C2C=CC(=[N+](C)C)C=C2)c2ccc(N(C)C)cc2)cc1.[Cl-] [hexamethyl-p-rosaniline chloride],Cytotoxicity pattern across the 13 cell types,[1],cytotoxicity in all cell types at similar concentrations
CN(C)c1ccc(C(=C2C=CC(=[N+](C)C)C=C2)c2ccccc2)cc1.CN(C)c1ccc(C(=C2C=CC(=[N+](C)C)C=C2)c2ccccc2)cc1.O=C(O)C(=O)O.O=C([O-])C(=O)O.O=C([O-])C(=O)O [malachite green oxalate],Cytotoxicity pattern across the 13 cell types,[1],cytotoxicity in all cell types at similar concentrations
[CH3][Hg][Cl] [methyl mercuric (II) chloride],Potency in NIH 3T3 relative to the next most responsive cell type,NIH 3T3,50 fold
Cl.N=C1C=CC(=C(c2ccc(N)cc2)c2ccc(N)cc2)C=C1 [pararosaniline hydrochloride],Cytotoxicity pattern across the 13 cell types,"[1]; 0.59 nM to 92 μM, 40 hr",cytotoxicity in all cell types at similar concentrations
CC(=O)[O][Hg][c]1ccccc1 [phenyl mercuric acetate],Cytotoxicity pattern across the 13 cell types,[1],uniformly toxic across all cell types
[K+].[K+].[O]=[Cr](=[O])([O-])[O][Cr](=[O])(=[O])[O-] [potassium dichromate],Cytotoxicity pattern across the 13 cell types,[1],cytotoxic in all 13 cell types
same,Exposure time to complete cytotoxicity,HepG2 cells,35 h
CC/C(=C(\c1ccccc1)c1ccc(OCCN(C)C)cc1)c1ccccc1 [tamoxifen],Hill coefficient,HepG2,4.4 ± 0.5
same,Hill coefficient,Jurkat,2.0 ± 0.2
same,Hill coefficient,SK-N-SH,3.4 ± 0.7
same,Hill coefficient,Mesangial,2.4 ± 0.8
same,Hill coefficient,"SH-SY5Y; SH-SY5Y, mean ± SD",3.1 ± 0.7
same,Hill coefficient,HUV-EC-C,4.2 ± 0.5
same,Hill coefficient,MRC-5,2.9 ± 1.2
same,Hill coefficient,H-4-II-E,2.7 ± 0.8
same,Hill coefficient,[2],4.7 ± 0.3
same,Hill coefficient,N2a,4.0 ± 0.8
same,Hill coefficient,BJ,3.1 ± 1.0
same,Hill coefficient,"NIH 3T3; NIH 3T3, mean ± SD",2.6 ± 0.8
same,Hill coefficient,"HEK293; HEK293, mean ± SD",3.8 ± 1.0
CN(C)C(=S)SSC(=S)N(C)C [tetra-methylthiuram disulfide],Potency in SH-SY5Y relative to the next most responsive cell type,SH-SY5Y; more potent in SH-SY5Y,250 fold
